Test results reported in publication PMC8983201 (Evidence-based Complementary and Alternative Medicine : eCAM, 2022).

Legend:
Assay type in all cases: cell-based
[1] = system: tested cancer cell lines; assay: RRA cytotoxicity, summary over the panel of tested cancer cell lines; conditions: all cell lines tested (Table 3 panel)
Method: (§1) 18 cancer cell lines and normal hepatocyte AML12 were used in the present study. Cancer cell lines such as drug-sensitive leukemia CCRF-CEM and multidrug-resistant P-glycoprotein-overexpressing subline CEM/ADR5000 cells, breast cancer MDA-MB-231-pcDNA cells and its resistant subline MDA-MB-231-BCRP clone 23 cells, colon cancer HCT116 p53^+/+ cells and its knockout clone HCT116 p53^−/−, glioblastoma U87MG cells, and its resistant subline U87MG.ΔEGFR [7, 23, 24]. The maintenance of HepG2 cells and AML12 hepatocytes was also published. The CC531 rat colon carcinoma cells, B16-F1, B16-F10, A2058, SK-Mel505, MaMel-80a, MV3, SkMel-28, and Mel-2A, were previously reported.
(§2) Different types of human cancer cell lines were used in this study. The resazurin reduction assay (RRA) as previously described with similar experimental conditions to those reported earlier was used to measure the cell cytotoxicity. Fluorescence was measured on an Infinite M2000 Pro™ plate reader (Tecan, Germany) using an excitation wavelength of 544 nm and an emission wavelength of 590 nm. The viability was determined based on a comparison with untreated cells. The values representing the sample's concentrations required to inhibit 50% of cell proliferation (IC50) were calculated from a calibration curve by linear regression using Microsoft Excel 2013 [33, 34].

[2] = system: MaMel-80a (BRAF-V600E homozygous mutant melanoma); assay: RRA cytotoxicity, MaMel-80a; conditions: Homo sapiens, compounds
Method: as §1, §2

[3] = system: SKMel-28 (BRAF-V600E homozygous mutant); assay: RRA cytotoxicity, SKMel-28; conditions: Homo sapiens, SK-MEL-28; SKMel-28, compounds
Method: as §1, §2

[4] = system: MV3 (BRAF wild type); assay: RRA cytotoxicity, MV3; conditions: Homo sapiens; MV3, compounds
Method: as §1, §2

[5] = system: normal AML12 hepatocytes; assay: RRA cytotoxicity, normal AML12 hepatocytes; conditions: Mus musculus; AML12, doxorubicin column of Table 2
Method: as §1, §2

[6] = system: HCT116 p53−/− cells; assay: RRA cytotoxicity, HCT116 (p53−/−); conditions: Homo sapiens, HCT-116, doxorubicin
Method: as §1, §2

[7] = system: CC531 rat colon carcinoma cells; assay: RRA cytotoxicity, CC531; conditions: Colon carcinoma cell, CC531, compounds
Method: as §1, §2

[8] = system: CCRF-CEM leukemia cells; assay: Resazurin reduction assay (RRA) cytotoxicity, CCRF-CEM; conditions: Homo sapiens, doxorubicin
Method: as §1, §2

[9] = system: Mel-2a (BRAF-V600E heterozygous mutant); assay: RRA cytotoxicity, Mel-2a; conditions: Homo sapiens, compounds
Method: as §1, §2

[10] = system: SKMel-505 BRAF wild-type melanoma cells; assay: RRA cytotoxicity, SKMel-505; conditions: Homo sapiens; SKMel-505, compounds
Method: as §1, §2

[11] = system: MDA-MB-231-BCRP clone 23 cells; assay: RRA cytotoxicity, MDA-MB-231-BCRP; conditions: Homo sapiens, doxorubicin
Method: as §1, §2

[12] = system: breast cancer MDA-MB-231-pcDNA cells; assay: RRA cytotoxicity, MDA-MB-231-pcDNA; conditions: Homo sapiens, doxorubicin
Method: as §1, §2

[13] = system: glioblastoma U87MG cells; assay: RRA cytotoxicity, U87MG; conditions: Homo sapiens, U-87 MG, doxorubicin
Method: as §1, §2

[14] = system: HepG2 hepatocarcinoma cells; assay: RRA cytotoxicity, HepG2; conditions: Homo sapiens; HepG2, doxorubicin column of Table 2
Method: The resazurin reduction assay (RRA) as previously described [24, 32] with similar experimental conditions to those reported earlier [26–30] was used to measure the cell cytotoxicity. Fluorescence was measured on an Infinite M2000 Pro™ plate reader (Tecan, Germany) using an excitation wavelength of 544 nm and an emission wavelength of 590 nm. The viability was determined based on a comparison with untreated cells.

[15] = system: B16-F1 murine melanoma; assay: RRA cytotoxicity, B16-F1; conditions: Mus musculus; B16-F1, compounds
Method: as §1, §2

[16] = system: A2058 (BRAF-V600E heterozygous mutant); assay: RRA cytotoxicity, A2058; conditions: Homo sapiens; A2058, compounds
Method: as §1, §2

[17] = system: B16-F10 murine melanoma; assay: RRA cytotoxicity, B16-F10; conditions: Mus musculus; B16-F10, compounds
Method: as §1, §2

[18] = system: U87MG.ΔEGFR cells; assay: RRA cytotoxicity, U87MG.ΔEGFR; conditions: Homo sapiens, doxorubicin
Method: as §1, §2

Row | Compound | IC50 [1] | IC50 [2] | IC50 [3] | IC50 [4] | IC50 [5] | IC50 [6] | IC50 [7] | IC50 [8] | IC50 [9] | IC50 [10] | IC50 [11] | IC50 [12] | IC50 [13] | IC50 [14] | IC50 [15] | IC50 [16] | IC50 [17] | IC50 [18]
1 | CC(CCC1(O)OC2CC3C4CC=C5CC(OC6OC(CO)C(O)C(O)C6O)CCC5(C)C4CCC3(C)C2C1C)COC1OC(CO)C(O)C(O)C1O [Compound 8, 26-O-β-D-glucopyranosyl-(22R,25R)-3β, 22, 26-trihydroxyfurost-5-ene-3-O-β-D-glucopyranoside] | > 100 µM |  |  |  |  |  |  |  |  |  |  |  |  |  |  |  |  | 
2 | COc1cccc2c1C(=O)c1c(O)c3c(c(O)c1C2=O)C[C@@](O)(C(=O)CO)C[C@@H]3O[C@H]1C[C@H](N)[C@H](O)[C@H](C)O1 [Doxorubicin, reference compound] |  | 8.66 ± 0.56 µM | 2.14 ± 0.12 µM | 7.09 ± 0.59 µM | 52.9 ± 4.09 µM | 1.78 ± 0.08 µM | 0.44 ± 0.23 µM | 0.02 µM | 6.63 ± 0.41 µM | 9.39 ± 1.01 µM | 0.79 ± 0.08 µM | 0.13 ± 0.01 µM | 0.26 ± 0.03 µM | 4.56 ± 0.48 µM | 0.22 ± 0.01 µM | 0.29 ± 0.04 µM | 0.24 ± 0.03 µM | 0.98 ± 0.07 µM
3 | C[C@@H]1CC[C@@]2(OC1)O[C@H]1C[C@H]3[C@@H]4CC=C5C[C@@H](O[C@@H]6O[C@H](CO)[C@@H](O)[C@H](O)[C@H]6O)CC[C@]5(C)[C@H]4CC[C@]3(C)[C@H]1[C@@H]2C [Compound 6, diosgenin-3-O-β-D-glucopyranoside] |  | > 100 µM | > 100 µM | > 100 µM |  |  | > 100 µM |  | > 100 µM | > 100 µM |  |  |  |  | 79.2 ± 5.39 µM | 38.9 ± 2.78 µM | > 100 µM | 
4 | C[C@@H]1CC[C@@]2(OC1)O[C@H]1C[C@H]3[C@@H]4CC=C5C[C@@H](O)CC[C@]5(C)[C@H]4CC[C@]3(C)[C@H]1[C@@H]2C [Compound 5, diosgenin] |  | > 100 µM | > 100 µM | > 100 µM |  |  | > 100 µM |  | > 100 µM | > 100 µM |  |  |  |  | > 100 µM | 27.1 ± 1.18 µM | > 100 µM | 
5 | C[C@@H]1CC[C@@]2(OC1)O[C@H]1C[C@H]3[C@@H]4CC=C5C[C@@H](O[C@@H]6O[C@H](CO)[C@@H](O[C@@H]7O[C@H](CO)[C@@H](O)[C@H](O)[C@H]7O)[C@H](O)[C@H]6O[C@@H]6O[C@@H](C)[C@H](O)[C@@H](O)[C@H]6O)CC[C@]5(C)[C@H]4CC[C@]3(C)[C@H]1[C@@H]2C [Compound 7, deltonin] | > 100 µM |  |  |  |  |  |  |  |  |  |  |  |  |  |  |  |  | 
6 | CC(CCC1(O)OC2CC3C4CC=C5CC(OC6OC(CO)C(O)C(OC7OC(CO)C(O)C(O)C7O)C6OC6OC(C)C(O)C(O)C6O)CCC5(C)C4CCC3(C)C2C1C)COC1OC(CO)C(O)C(O)C1O [Compound 3, (25R)-26-O-(β-D-galactopyranosyl)-furost-5-ene-3β, 22α, 26-trihydroxy-3-O-β-D-glucopyranosyl-(1 ⟶ 2)-[α-L-rhamnopyranosyl-(1 ⟶ 3)]-β-D-glucopyranoside] | > 100 µM |  |  |  |  |  |  |  |  |  |  |  |  |  |  |  |  | 
